In patent US20050053555A1, “Appetite control compositions and methods of use” (Crave Busters, LLC., priority 2003, published 2005):

System: sweetness taste receptors of the tongue
Assay: blocking the sense of sweetness by topical delivery to mouth and tongue
Format: in vivo
Settings: about 10 mg to about 80 mg glycyrrhizin delivered concurrently with gymnemic acid
From the text: Without being bound to any particular theory of action, it is currently believed that the appetite control compositions according to the invention deliver a relatively small dose of an active ingredient, gymnemic acid, directly to the sweetness taste receptors of the tongue, which blocks the sense of sweetness and thereby produces appetite control.
Gymnema sylvestre is commonly called Gurmar. It is well known in the art as a “sugar blocker.” Gymnema sylvestre contains the bitter principle gymnemic acid, which is well known for its ability to bind to the sweetness taste receptors on the tongue and to sugar absorption sites in the gut. Formerly, Gymnema sylvestre and extracts standardized to deliver gymnemic acid have been incorporated into traditional dosage forms to take advantage of its ability to block the absorption of sugar from the gut. […]
The appetite control compositions according to the invention include Gymnema sylvestre herb or, preferably, an extract of Gymnema sylvestre herb designed to maximize the quantity of gymnemic acid it contains. […]
In some embodiments, the appetite control compositions according to the invention include Glycyrrhiza glabra root or, preferably, an extract of Glycyrrhiza glabra root designed to maximize the quantity of glycyrrhizin it contains. […]

CC1(C)[C@@H](O[C@H]2O[C@H](C(=O)O)[C@@H](O)[C@H](O)[C@H]2O[C@@H]2O[C@H](C(=O)O)[C@@H](O)[C@H](O)[C@H]2O)CC[C@]2(C)[C@H]3C(=O)C=C4[C@@H]5C[C@@](C)(C(=O)O)CC[C@]5(C)CC[C@@]4(C)[C@]3(C)CC[C@@H]12 [glycyrrhizin]
effect on quantity of gymnemic acid required to block the sense of sweetness for 1 to 2 hours: effectively reduces the quantity of gymnemic acid required
